Results reported in patent US9416118B2, “Docosahexaenoyl ethanolamides” (The Brigham and Women's Hospital, Inc., priority 2011, dated 2016).
“Also recorded” adds a separate entry of the source. Like-named read-outs stand apart in the source and are kept apart here.

What was measured:
[1] = target: T1, CB1 receptor (Homo sapiens, UniProt P21554); assay: CB1 beta-arrestin receptor activation; assay type: cell-based; set-up: expressed in transfected cells; host or cells: HEK cells; conditions: HEK cells overexpressing CB1, beta-arrestin system
Experimental: (§1) FIG. 4. […] Ligand receptor interactions were determined by increases in chemiluminescence generated upon interaction of the EA labeled beta arrestin with the Pro-Link tagged receptor (see Methods). […] See text for more details.
(§2) To this end, recombinant human CB receptors were overexpressed in a beta-arrestin system as described in Experimental Procedures.

[2] = system: platelet-leukocyte aggregates; assay: PAF-stimulated platelet-leukocyte aggregate formation in whole blood (overall statements); assay type: cell-based; conditions: human whole blood, 100 nM PAF, 0.01-100 nM dose range
Experimental: (§3) FIG. 5. […] Human whole blood stimulated with PAF (100 nM) was incubated with 10,17-diHDHEA, 15-HEDPEA or DHEA for 30 min, 37° C. The incubation was stopped via ice-cold RBC lysis buffer. The majority of RBCs were removed and remaining cells were labeled. Platelet-leukocyte aggregate formation or P-selectin mobilization was analyzed using FACS (see Methods). Dose response inhibition of a) platelet-monocyte aggregate formation, b) representative dot plot of platelet-monocyte aggregates, c) platelet-PMN aggregate formation, d) platelet P-selectin mobilization, with indicated products. (diamonds 10,17-diHDHEA; triangles 15-HEDPEA; squares DHEA). Results are mean±SEM of n=5-6 donors. P<0.05 compared to vehicle treatment.
(§4) Whole blood was incubated with either vehicle, HPLC isolated 10,17-diHDHEA or 15-HEDPEA (0.01-100 nM) for 15 min at 37° C. with intermittent mixing. Vehicle or PAF (100 nM, PAF C-16, Cayman Chemical, Ann Arbor, Mich.) was added for another 30 min at 37° C. with intermittent mixing. Incubation was stopped by ice-cold red blood cell lysis buffer (10 min at 4° C.). Cells were collected using centrifugation (210 g, 5 min, 4° C.) then fixed with 3% formalin (15 min, 4° C.). Cells were stained with FITC-anti-human CD41 (1:100, v/v) and PE-anti-human-CD62P (1:100, v/v) for 20 min at 4° C., and were analyzed using a flow cytometry and Cell Quest software as in (23). Cellular composition within whole blood was determined by forward and side scattering as well as cell-specific markers, anti-human-CD41 for platelets, anti-human-CD14 for monocytes and anti-human-CD16 for neutrophils.

[3] = system: platelet P-selectin; assay: Platelet P-selectin surface expression in PAF-stimulated whole blood; assay type: cell-based, human; conditions: 10 pM to 100 nM
Experimental: as §3
(§5) Whole blood was incubated with either vehicle, HPLC isolated 10,17-diHDHEA or 15-HEDPEA (0.01-100 nM) for 15 min at 37° C. with intermittent mixing. […] Cells were stained with FITC-anti-human CD41 (1:100, v/v) and PE-anti-human-CD62P (1:100, v/v) for 20 min at 4° C., and were analyzed using a flow cytometry and Cell Quest software as in (23). Cellular composition within whole blood was determined by forward and side scattering as well as cell-specific markers, anti-human-CD41 for platelets, anti-human-CD14 for monocytes and anti-human-CD16 for neutrophils.

[4] = system: platelet-monocyte aggregates; assay: PAF-stimulated platelet-monocyte aggregate formation in whole blood; assay type: cell-based, human; conditions: 100 nM PAF; for Decrease of platelet-monocyte aggregate formation: 10 pM compound, human whole blood
Experimental: as §3, §4

[5] = system: platelet-PMN aggregates; assay: PAF-stimulated platelet-PMN aggregate formation in whole blood; assay type: cell-based, human; conditions: 100 nM PAF
Experimental: as §3, §5

[6] = system: human PMN; assay: Microfluidic chamber screening of PMN chemotaxis in an IL-8 gradient; assay type: cell-based
Experimental: The fabrication and surface modification of the microfluidic devices were prepared as in refs. (9,22). Whole blood (5-10 μl) diluted in HBSS (1:10, v/v) was introduced into the chemotaxis chamber via a cell inlet and neutrophils were captured along the chamber via P-selectin tethering. Next, the transversal gradient of IL-8 (0-10 nM) was introduced to the chemotaxis chamber. After fifteen minutes, novel DHEA metabolites (at a uniform concentration) were introduced to the chemotaxis chamber from the second gradient generator network, and 10 nM IL-8 gradient was maintained Single-cell neutrophil chemotaxis was recorded using microscopy (Nikon, Eclipse E600) equipped with a video camera (Diagnostic, RT Slider) and subject to analysis using ImageJ software (9).
In parallel to structure elucidation, chemotactic screening of HPLC isolated DHEA metabolites obtained from mouse brain was carried out utilizing microfluidic chamber (FIG. 1c). After IL-8 (0-10 nM gradient) was introduced to the main channel of the microfluidic device, P-selectin tethered leukocytes rapidly migrated along the IL-8 chemotactic gradient at an average rate of 2.3 μm/min. After 15 min, the mixture of metabolites was infused into the microfluidic main channel while an IL-8 (0-10 nM) gradient was maintained (FIG. 1c, left panel). […] This decrease in chemotaxic velocity was maintained even after the gradient was switched back to IL-8.
HPLC isolated dioxygenated DHEA products were individually screened for direct PMN actions using microfluidic chambers.

[7] = target: T2, human CB2 receptor (Homo sapiens, UniProt P34972); assay: CB2 beta-arrestin receptor activation (PathHunter chemiluminescence); assay type: cell-based
Experimental: as §1
(§6) Receptor activation with the CB2 beta arrestin system was carried out essentially as in (20,21). HEK cells stably overexpressing human CB2 receptor tagged with Pro-Link and EA labeled beta-arrestin (Discoverx, Fremont Calif.) were plated at 20,000 cells/well of a 96 well plate. […] Ligand receptor interaction was determined by measuring chemiluminescence using the Pathhunter EFC detection kit (Discoverx, Fremont, Calif.), generated upon coupling of the EA labeled beta arrestin with the Pro-Link tagged receptor, with a plate reader (Envision, Perkin Elmer, Santa Clara, Calif.).
as §2

[8] = system: mouse ischemia reperfusion second organ lung injury; assay: Hind limb ischemia / second organ lung reperfusion injury; assay type: in vivo
Experimental: Supplemental FIG. 4. 15-HEDPEA is protective in mouse ischemia reperfusion second organ lung injury. Mice were subjected to hind limb ischemia for 1 hr using tourniquets. 15-HEDPEA was intravenously administered 5 min before tourniquet removal. After 2 hr reperfusion, mouse lungs were harvested and the tissue levels of myeloperoxidase (MPO) were determined using a mouse MPO ELISA. Results are expressed as reduction in lung associated decrease in leukocyte myeloperoxidase values (n=3-6).
Murine hind limb vascular occlusion second organ lung reperfusion injury was performed using 6- to 8-week-old FVB male mice and carried out as in (24).

[9] = target: T2, human CB2 receptor; assay: AM630 inhibition of ligand-stimulated activation of cells over-expressing CB2; assay type: cell-based
Experimental: as §1, §6, §2

[10] = target: T1, CB1 receptor; conditions: from reference 31; read-out: Ki, affinity to CB1 receptor; cited from earlier work
[11] = 10 nM compound, 0-10 nM IL-8 gradient
[12] = HEK cells overexpressing human CB2, beta-arrestin system, 1 h, 37° C., 1 pM to 100 nM, read-out: EC50 for activation of CB2

T2 sequence (P34972 whole entry): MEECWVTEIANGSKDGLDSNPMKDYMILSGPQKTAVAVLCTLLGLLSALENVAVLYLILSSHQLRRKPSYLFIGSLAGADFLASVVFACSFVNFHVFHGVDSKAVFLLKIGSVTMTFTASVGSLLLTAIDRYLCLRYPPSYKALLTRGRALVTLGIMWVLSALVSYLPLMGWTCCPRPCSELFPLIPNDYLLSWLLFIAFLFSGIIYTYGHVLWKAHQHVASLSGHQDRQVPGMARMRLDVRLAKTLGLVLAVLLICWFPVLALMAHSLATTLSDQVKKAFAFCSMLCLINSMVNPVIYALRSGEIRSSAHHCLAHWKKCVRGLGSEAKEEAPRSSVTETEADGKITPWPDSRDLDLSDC
T1 sequence (P21554 whole entry): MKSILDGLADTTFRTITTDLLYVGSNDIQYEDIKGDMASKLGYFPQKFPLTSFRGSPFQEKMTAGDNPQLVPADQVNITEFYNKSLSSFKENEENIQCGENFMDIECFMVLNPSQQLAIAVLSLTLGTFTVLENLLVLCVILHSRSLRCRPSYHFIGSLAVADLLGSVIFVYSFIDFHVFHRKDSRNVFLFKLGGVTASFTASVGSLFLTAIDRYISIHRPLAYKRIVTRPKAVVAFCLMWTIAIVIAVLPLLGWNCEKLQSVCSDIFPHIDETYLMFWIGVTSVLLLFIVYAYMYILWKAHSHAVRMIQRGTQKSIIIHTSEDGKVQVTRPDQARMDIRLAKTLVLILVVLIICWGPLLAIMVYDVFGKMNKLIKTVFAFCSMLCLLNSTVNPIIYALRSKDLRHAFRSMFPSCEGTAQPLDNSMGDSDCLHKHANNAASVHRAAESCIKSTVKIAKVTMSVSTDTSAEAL

CC/C=C\C[C@H](O)/C=C/C=C\C=C\[C@H](O)C/C=C\C/C=C\CCC(=O)NCCO (single isomer, unassigned) [10,17-diHDHEA, 10,17-dihydroxydocosa-4Z,7Z,11,13Z,15,19Z-hexaenoylethanolamide]
Activation of CB1 receptors (in words) [1]: activated CB1 receptors but required much higher concentrations | Effect on platelet-leukocyte aggregate formation (in words) [2]: prevented formation of platelet-leukocyte aggregates | Effect on platelet-leukocyte aggregate formation (in words) ([2]; listed as 10,17S-diHDHEA): block PAF-stimulated platelet-leukocyte aggregate formation | Effect on P-selectin surface expression of platelets (in words) [3]: blocked P-selectin surface expression | Effect on P-selectin surface expression of platelets (in words) ([3]; listed as 10,17-diHDEA): inhibited | Decrease of platelet-monocyte aggregate formation [4]: ~30% | Maximum reduction of platelet-monocyte aggregate formation ([4]; 100 pM compound, bell-shaped dose response): ~40% | Decrease of platelet-PMN aggregates ([5]; human whole blood): 25%-35% | Inhibition of PMN-platelet aggregate formation (in words) ([5]; concentrations as low as 10 pM): inhibited | Effect on PMN chemotaxis (in words) [6, 11]: did not significantly regulate chemotaxis | Effect on PMN chemotaxis (in words) ([6]; 10 μM compound, IL-8 gradient): rapidly stopped PMN chemotaxis | EC50 [7, 12]: 0.39 nM

CC/C=C\C[C@H](O)/C=C/C=C\C/C=C\C/C=C\C=C\[C@H](O)CCC(=O)NCCO [4,17-diHDHEA, 4,17-dihydroxydocosa-5,7Z,10Z,13Z,15,19Z-hexaenoylethanolamide]
Effect on PMN chemotaxis (in words) [6, 11]: did not significantly regulate chemotaxis

CC/C=C\C[C@H](O)/C=C/C=C\C/C=C\C=C\[C@H](O)C/C=C\CCC(=O)NCCO [7,17-diHDHEA, 7,17-dihydroxydocosa-4Z,8E,10Z,13Z,15,19Z-hexaenoylethanolamide]
Effect on PMN chemotaxis (in words) [6, 11]: did not significantly regulate chemotaxis

CCCCC[C@H](O)/C=C/C=C\C/C=C\C/C=C\CCCC(=O)NCCO [15(S)-HAEA, 15(S)-HETE ethanolamide, reference compound]
Stimulation of CB2 receptors (in words) ([7]; beta-arrestin system, tested dose range 1 pM to 100 nM): did not stimulate CB2 receptors

CC/C=C\CC1OC1C(O)/C=C\C/C=C\C/C=C\C/C=C\CCC(=O)NCCO (centres unmarked) [15-HEDPEA, 15-hydroxy-16(17)-epoxydocosa-4Z,7Z,10Z,13Z,19Z-pentaenoylethanolamide]
Activation of CB1 receptors (in words) [1]: activated CB1 receptors but required much higher concentrations | Effect on platelet-leukocyte aggregate formation (in words) [2]: block PAF-stimulated platelet-leukocyte aggregate formation; also recorded: prevented formation of platelet-leukocyte aggregates | Decrease of platelet-monocyte aggregate formation [4]: ~30% | Reduction of lung PMN infiltration (MPO) compared to vehicle ([8]; 1 μg/mouse intravenously, 1 h ischemia, 2 h reperfusion): ~50% | Organ protection (in words) ([8]; mouse reperfusion second organ injury, 1 μg/mouse): organ protective | Effect on PMN chemotaxis (in words) [6, 11]: effectively stopped PMN chemotaxis; also recorded: stopped further PMN migration | Time after which further PMN migration stopped ([6]; 10 nM compound, IL-8 gradient): ~4 min | EC50 [7, 12]: 0.1 nM

COc1ccc(C(=O)c2c(C)n(CCN3CCOCC3)c3cc(I)ccc23)cc1 [AM630]
AM630 inhibition of CB2 activation stimulated with 15-HEDPEA ([9]; 15-HEDPEA 10 nM): inhibited activation | AM630 inhibition of CB2 activation stimulated with AEA ([9]; AEA 10 nM, positive control): inhibited activation | AM630 inhibition of CB2 interaction with 10,17-diHDHEA ([9]; at higher concentration, n=3, data not shown): inhibited GPCR CB2 interaction

CCC=CCC=CCC=CCC=CCC=CCC=CCCC(=O)NCCO [DHEA, docosahexaenoylethanolamide, reference compound]
Effect on platelet-leukocyte aggregate formation (in words) [2]: did not significantly inhibit; also recorded: not active | Ki [10]: 324 nM | EC50 [7]: 9.8 nM
